For one molecule, microsomal CLint and Papp results are on record in ChEMBL document CHEMBL1914382, “Fragment based discovery of a novel and selective PI3 kinase inhibitor” (Bioorg Med Chem Lett, 2011).

Data set [1] in a line: Metabolic stability in human liver microsomes. It is filed as ADME, Microsome. The note with it: read-out: Stability. For orientation: Liver microsomes are vesicles of endoplasmic reticulum, rich in cytochrome P450 enzymes.
A short description of data set [2]: Metabolic stability in rat liver microsomes. It is filed as ADME, Microsome. The note with it: read-out: Stability.
A short description of data set [3]: Permeability of the compound by PAMPA. It is filed as ADME. Particulars: read-out: permeability. A general note: In PAMPA a lipid-coated filter parts donor from acceptor wells.

On to `CC(=O)Nc1cn2cc(/C=C3\SC(=O)NC3=O)ccc2n1`, for which the microsomal CLint was found to be 10 µL/min/mg in data set [1] and 15 µL/min/mg in data set [2]. For the same molecule, the Papp in data set [3] is 13.6 ×10⁻⁶ cm/s.
